The structures appear in SMILES notation.

As to `Cc1cscc1-c1cccc2c1nnn2-c1ccnc(NC2CCN(S(C)(=O)=O)CC2)n1`, the melting point (as a rule, the temperature of the solid-liquid transition) lay within 244 to 245 °C.

The compound `CN(C)C(=NCCN1CCC(C(=O)c2ccc(F)cc2)CC1)NC#N` registered a melting point of 139 to 141 °C.

Consider `FC(F)(F)COc1cccc(-c2ccc3nnn(Cc4ccc5ncccc5c4)c3n2)c1`, for which the melting point lay within 151 to 154 °C.

`CC(=C1SC(=O)NC1=O)c1ccc(OCCOc2c(-c3ccc(F)cc3)n(C)c3ccccc3c2=O)c(F)c1` had a melting point of 220 to 222 °C.

`Clc1cccc(-c2nc(NC3CCCCC3)c3ccccc3n2)n1`: the melting point lay within 218 to 221 °C.

`C#CCOC(=O)c1cc(Cl)c(OCC#C)c(OCC#C)c1`: the melting point is 98 to 99 °C.

The compound `O=C1CC2(CCCC2)CC(=O)N1CCCCc1ccncc1` gave a melting point of 155 to 157 °C.

Compound `COc1ccc(/C=C/C(=O)c2ccccc2C(=O)O)cc1-c1cccs1` came in with a melting point of 79 to 81 °C.

For `Cn1ncnc1-c1cc(S(C)=O)c2[nH]c(=O)ccc2c1` (centres undefined), the melting point is 224 to 227 °C.

Consider `N#Cc1ccc(Cc2cccc3c2CCN(Cc2cncn2Cc2ccc(C#N)cc2)C3)cc1`, for which the melting point lay within 195 to 196 °C.

`CC1(C)C=Cc2c(ccc3c2C=CC(=O)C3=O)O1` came in with a melting point of 189 to 193 °C.

Turning to `CCN(C(=O)N1CCN(c2cc(C)cc(C)c2)CC1)c1nc(C)c(C)nc1OC`, the melting point is 68 to 70 °C.

As for `CNC(C)CN1CCc2c(c(=O)oc3cc(OC)ccc23)C1` (centres undefined), the melting point lay within 109 to 111 °C.

For `CCCOc1ccccc1-c1nc(NC(C)=O)cc(=O)[nH]1`, the melting point was in the range of 230 to 231 °C.

As to `CC1(C)Oc2ccc(-c3c(O)c(=O)c3=O)cc2[C@@H](N2Cc3ccccc3C2=O)[C@@H]1O` (relative stereo), the melting point is more than 250 °C.

`O=C(O)CCC(=NO)c1ccc(-c2ccc(Cl)c(Cl)c2)cc1` returned a melting point of 166 °C.

The compound `CC12CC(F)C3C4CCC(=O)C=C4CCC3C1CCC2=O` (centres undefined) returned a melting point of 173 to 174 °C.

Take `CCCCCCCCC=CCCCCCCCCN1CC(C(=O)OC)N(S(=O)(=O)c2ccc(-c3ccc(Br)cc3)cc2)CC1=O` (centres undefined): the melting point is 108 °C.

With `CC(C(=O)c1ccc(Br)cc1)n1ncn(-c2ccc(N3CCN(c4ccc(O[Si](C)(C)C(C)(C)C)cc4)CC3)cc2)c1=O` (centres undefined), the melting point was determined as 178 °C.

The compound `COCC(F)(F)c1nc2nc(C)c(F)cc2cc1C(=O)C1C(=O)C2CCC(C2)C1=O` (centres undefined) displayed a melting point of 177 to 180 °C.

The compound `CC(=O)Nc1ccccc1C(C)=O` showed a melting point of 99 to 100 °C.

Regarding `O=C(Nc1nnn[nH]1)c1cnc2sc3ccc(F)cc3n2c1=O`, the melting point was more than 300 °C.

For the compound `CC(=O)N1CCc2c(cccc2NS(=O)(=O)c2ccccc2)C1`, the melting point was in the range of 131 to 132 °C.

Take `COC(=O)C(=C1SC=CS1)S(=O)(=O)C(C)C`: the melting point lay within 141 to 142 °C.

As to `c1cc(-c2nc3cc4[nH]cnc4cc3[nH]2)ccn1`, the melting point is more than 280 °C.

Compound `COc1ccc(C(=O)Nc2ccc3oc4c(c3c2)CCCC4)cc1` showed a melting point of 197 to 198 °C.

As to `Cc1cc(C(=O)N(O)C2CCCCC2)c(C)o1`, the melting point is 135 to 137 °C.

In turn, `C(CCc1cncn1Cc1ccccc1)=C(c1ccccc1)c1ccccc1` yielded a melting point of 161 to 168 °C.

In turn, `Cc1cn(C[C@H]2CC[C@@H](CO)O2)c(=O)[nH]c1=O` came in with a melting point of 133 to 135 °C.

As for `O=[N+]([O-])c1c(CBr)cccc1Oc1ccccc1Cl`, the melting point lay within 68 to 70 °C.

`COc1cc2c(cc1-c1ncco1)-c1c(-c3cncs3)c3c(n1CC2)C(=O)N(C(C)(C)C)CCCC3` showed a melting point of 205 to 207 °C.

In turn, `CN1CCC(c2nc3ccccc3[nH]2)C1` (centres undefined) gave a melting point of 189 to 193 °C.

`COC(=O)c1nc(-c2ccc(Cl)c(OC)c2F)cc(NC(C)=O)c1C` gave a melting point of 182 to 184 °C.

As to `CCCCc1nc(Cl)c(CC(=O)O)n1Cc1ccc([N+](=O)[O-])cc1`, the melting point lay in the range of 207 to 210 °C.

The compound `COC(=O)C=Cc1ccc(-c2ccccc2C(F)(F)F)c(C(F)(F)F)c1` yielded a melting point of 97 to 98 °C.

`OCc1c[nH]c2c1ccc1c3ccccc3[nH]c12`: the melting point was more than 295 °C.

In turn, `CCc1cc(C=C(C#N)C#N)ccc1N=C1SCC2(CCCC2)N1C1CCCC1` came in with a melting point of 135 to 136 °C.

Regarding `O=C(N[C@H](Cc1ccc(C(F)(F)F)cc1)[C@@H](O)c1ccc(Cl)nc1)c1ccc(F)c2ccccc12` (racemic), the melting point lay in the range of 188 to 189 °C.

`Cc1c(C)c2c(c(C)c1NC(=O)CC(C)(C)C)C(c1ccc(C(C)C)c(O)c1)CO2` (centres undefined): the melting point is 220 to 221 °C.

On to `COc1ccc(-c2[nH]c3cn[nH]c(=O)c3c2Cl)cc1OC(C)C`, for which the melting point is 291 to 299 °C.

Compound `ON=CCOc1ccc(Oc2ccccc2)cc1` yielded a melting point of 102 to 105 °C.

Compound `COC(=O)c1ccc(CC#N)cc1S(=O)(=O)NC(=O)Nc1nc(OC)cc(OC)n1` yielded a melting point of 177 to 179 °C.

`O=C(Nc1ccc2nc(CN3CCCC3)ccc2c1)C1CCN(c2ccc(Cl)cc2)CC1` returned a melting point of 204 to 206 °C.

On to `O=C1C2=C(CCCC2)C(=O)N1c1ccc2c(c1)NC(=O)C21CC1`, for which the melting point was in the range of 274 to 276 °C.

Compound `Cc1cc(Br)cc(-c2ccc3c(c2)C(C)(C)OC(=S)N3)c1` displayed a melting point of 183 to 184 °C.

As for `Nc1ccc2c(=O)[nH]c(=O)n(-c3ccccc3)c2n1`, the melting point is more than 300 °C.

`CC(C)Oc1cncc(Br)c1` registered a melting point of 144 to 146 °C.

Turning to `CCC(C)(C)OC(=O)NC(C)(Cc1c[nH]c2ccccc12)C(=O)NCCCCc1ccccc1` (centres undefined), the melting point was in the range of 127 to 130 °C.

Compound `CCCCOc1c(CNC(=O)OC(C)(C)C)n(CC(C)C)c(=O)c2ccc(-c3ccccc3)cc12` showed a melting point of 155 to 159 °C.

Consider `CC1(C#N)CCCc2nc(-c3ccccc3)ccc21` (centres undefined), for which the melting point was 114 to 116 °C.

`C=CCc1nc(CC)n2nc(-c3cc(I)cnc3OCCCC)[nH]c(=O)c12`: the melting point lay within 134 to 135 °C.

The compound `Oc1cccc(Cc2cnc3c(-c4cc(-c5ccccc5)cs4)cnn3c2O)c1` displayed a melting point of 235 to 237 °C.

As for `CC(C)(C)CCN1C(=O)C(NC(=O)Oc2ccccc2)C(=O)N(c2ccccc2F)c2ccccc21` (centres undefined), the melting point lay in the range of 199 to 200 °C.

As for `CCOC(OCC)c1ncn(C(c2ccccc2)(c2ccccc2)c2ccccc2)n1`, the melting point was in the range of 120 to 124 °C.

`COc1ccc(Cn2c(=O)ccc3cnc(Cl)cc32)cc1Cl` had a melting point of 208 to 210 °C.

The compound `O=C1Nc2ccc(F)cc2C1CCCCN1CCN(c2cc(Cl)cc3c2OCCO3)CC1` (centres undefined) gave a melting point of 146 to 148 °C.

In the case of `Cc1cc(Cl)ccc1N1C(=O)c2ccc(Cl)cc2C1=O`, the melting point is 193 to 195 °C.

The compound `CCCn1c(=S)c2[nH]c(C(C)C)nc2n(CCC)c1=O` registered a melting point of 133 to 134 °C.

The compound `O=C1NCCn2c1cc1c2CCCC1` registered a melting point of 207 to 209 °C.

`C=CCc1c[nH]c2c([N+](=O)[O-])cccc2c1=O` had a melting point of 242 °C.

`COc1ccc2c(c1)CN(C(=O)CCCCCN1CCN(c3cccc(C(F)(F)F)c3)CC1)C2` gave a melting point of 92 °C.

Regarding `CCOc1nc(O)cc(OC)n1`, the melting point fell in the range of 146 to 148 °C.

Take `COc1c(S(N)(=O)=O)c(C)nn1C`: the melting point was in the range of 144 to 146 °C.

As for `COc1ccccc1-c1ccc(C[C@H](NC(=O)c2c(Cl)cccc2Cl)C(=O)O)cc1C(C)=O`, the melting point fell in the range of 87 to 89 °C.

`O=C(Nc1nc(C(Cl)(Cl)Cl)ns1)c1ccccc1` returned a melting point of 190 °C.

As for `COC(=O)c1cc(C(C)(C)C(=O)OC)ccc1N`, the melting point was in the range of 58 to 60 °C.

The compound `Cc1c(-c2cc(Nc3cc4n(n3)CCN(C)C4)c(=O)[nH]n2)cccc1N1Cc2ccc(C(C)(C)C)cc2C1=O` had a melting point of 208 to 210 °C.

`COCc1nc2c(N)nc3ccccc3c2n1CC(C)(C)OCCS(C)(=O)=O` came in with a melting point of 186 to 189 °C.

`CS(=O)(=O)c1ccc(-c2oc(CCC(=O)O)nc2-c2ccc(F)cc2)cc1` showed a melting point of 197 to 198 °C.

`Cc1ccc(-n2nc3c4cc(CCc5ccccc5)ccc4[nH]c(=O)n3c2=O)cc1` came in with a melting point of 303 °C.

On to `CCCc1c(OCCCCCCc2cccc(O)c2O)ccc(C(=O)O)c1O`, for which the melting point lay in the range of 147 to 150 °C.

As for `Clc1ccc(Nc2nnc(NCc3ccncc3)c3ccccc23)cc1`, the melting point was 233 to 236 °C.

`COc1ccc(-c2cc(C(=O)O)cc3ccc4c(c23)OCO4)cc1` returned a melting point of 264 to 266 °C.

With `Cc1nc(-c2ccccc2)nc(N2CCCC2C(=O)O)c1C` (centres undefined), the melting point lay in the range of 90 to 92 °C.

`COC(=O)C(C#N)=C(N)c1c(-c2ccccc2)noc1N` yielded a melting point of 256 °C.

As for `CC1(C(=O)O)CC1(F)F` (centres undefined), the melting point was 59 to 61 °C.

For `CCOC(=O)C1=CNc2ccc(C(F)(F)F)cc2CC1c1ccccc1Cl` (centres undefined), the melting point lay in the range of 190 to 192 °C.

`CCCc1ccc(C(=O)Nc2ccc3c(c2)CCCC3=O)cc1` returned a melting point of 168 to 170 °C.

Compound `O=C1Nc2ccc(Oc3cc(F)c(C(F)(F)F)c(Cl)c3)cc2C12CC2` had a melting point of 168 to 170 °C.

The compound `CCN(Cc1ccc(Cl)nc1)C(=C[N+](=O)[O-])N(C)C(=O)OCOC(=O)c1ccccc1` showed a melting point of 62 to 63 °C.

As to `O=C(O)C1=Cc2cc(Cl)c(Oc3ccccc3Cl)cc2OC1C(F)(F)F` (centres undefined), the melting point came out at 199 °C.

In the case of `CC(=O)Oc1c(OC(C)=O)c([C@H]2CC[C@H](c3ccc(Cl)cc3)CC2)c(OC(C)=O)c2ccccc12`, the melting point fell in the range of 177 to 179 °C.

With `CSc1cc(C)nc(SC)c1NC(=O)CCCCCCCCSc1nc2ccccc2s1`, the melting point fell in the range of 126 to 127 °C.

`Cc1ccc(-c2ccc(C(=O)CCC(=O)O)cc2)cc1` came in with a melting point of 183 to 186 °C.

The compound `COC(=O)c1ccc(C(=O)c2ccc(NC(C)=O)cc2)cc1` registered a melting point of 212 °C.

Regarding `CCOC(=O)C=CN1C(C)(C)CC(=O)CC1(C)C`, the melting point amounted to 145 °C.

`CC(C)(C)c1cc(C=C2SC(NCO)=NC2=O)cc(C(C)(C)C)c1O` displayed a melting point of 177 to 179 °C.

With `Cc1cccc(-c2sc(N)nc2-c2ccnc(-c3ccc(OC(F)(F)F)cc3)c2)n1`, the melting point is 232 °C.

`Cc1c(N)noc1C(F)(F)C(F)(F)F` returned a melting point of 32 to 34 °C.

(Values after a melting point compilation (Tetko et al.; mined from patent text by program, amines drawn as free bases though some values may be those of a salt).)
